ChEMBL document CHEMBL5329166, “Discovery of imeglimin-inspired novel 1,3,5-triazine derivatives as antidiabetic agents in streptozotocin-induced diabetes in Wistar rats via inhibition of DPP-4” (RSC Med Chem, 2023)
Activity calls are given as the source filed them. No cut-off for these calls is given here.

Tests used:
[1] = system: Rattus norvegicus; experiment: Antioxidant activity in high fat diet/STZ induced diabetic Wistar rat model assessed as healing of hepatocyte central veins at 3 to 10 mg/kg, IG pretreated with STZ for 21 days followed by compound treatment once daily for 21 days by H and E staining based microscopic analysis; format: functional, organism-based; conditions: dose 3-10 mg/kg, time 21.0 day
[2] = system: Rattus norvegicus; experiment: Antidiabetic activity in IG dosed high fat diet/STZ induced diabetic Wistar rat model assessed as reduction in blood sugar level pretreated with STZ for 21 days followed by compound treatment once daily for 21 days by glucose test strips based assay; format: functional, organism-based; conditions: dose 3-30 mg/kg, time 21.0 day
[3] = system: Rattus norvegicus; experiment: Antioxidant activity in high fat diet/STZ induced diabetic Wistar rat model assessed as appearance of round-oval nuclei in hepatocytes at 30 mg/kg, IG pretreated with STZ for 21 days followed by compound treatment once daily for 21 days by H and E staining based microscopic analysis; format: functional, organism-based; conditions: time 21.0 day
[4] = system: Rattus norvegicus; experiment: Antioxidant activity in IG dosed high fat diet/STZ induced diabetic Wistar rat model assessed as reversal of CAT reduction in liver pretreated with STZ for 21 days followed by compound treatment once daily for 21 days by spectrophotometric analysis; format: functional, organism-based; conditions: dose 3-30 mg/kg, time 21.0 day
[5] = system: Rattus norvegicus; experiment: Antidiabetic activity in high fat diet/STZ induced diabetic Wistar rat model assessed as reduction in triglyceride level at 3 to 30 mg/kg, IG pretreated with STZ for 21 days followed by compound treatment once daily for 21 days by spectrophotometric analysis; format: functional, organism-based; conditions: dose 3-30 mg/kg, time 21.0 day
[6] = system: Rattus norvegicus; experiment: Antioxidant activity in IG dosed high fat diet/STZ induced diabetic Wistar rat model assessed as reversal of GSH reduction in kidney pretreated with STZ for 21 days followed by compound treatment once daily for 21 days by spectrophotometric analysis; format: functional, organism-based; conditions: dose 3-30 mg/kg, time 21.0 day
[7] = system: Rattus norvegicus; experiment: Antioxidant activity in IG dosed high fat diet/STZ induced diabetic Wistar rat model assessed as reversal of GPx reduction in liver pretreated with STZ for 21 days followed by compound treatment once daily for 21 days by spectrophotometric analysis; format: functional, organism-based; conditions: dose 3-30 mg/kg, time 21.0 day
[8] = system: Rattus norvegicus; experiment: Antidiabetic activity in high fat diet/STZ induced diabetic Wistar rat model assessed as reduction in LDL level at 3 to 30 mg/kg, IG pretreated with STZ for 21 days followed by compound treatment once daily for 21 days by spectrophotometric analysis; format: functional, organism-based; conditions: dose 3-30 mg/kg, time 21.0 day
[9] = system: Rattus norvegicus; experiment: Antioxidant activity in high fat diet/STZ induced diabetic Wistar rat model assessed as repair of pancreatic epithelial cells with reduced fibrosis at 30 mg/kg, IG pretreated with STZ for 21 days followed by compound treatment once daily for 21 days by H and E staining based microscopic analysis; format: functional, organism-based; conditions: time 21.0 day
[10] = system: Rattus norvegicus; experiment: Antioxidant activity in IG dosed high fat diet/STZ induced diabetic Wistar rat model assessed as reversal of SOD reduction in kidney pretreated with STZ for 21 days followed by compound treatment once daily for 21 days by spectrophotometric analysis; format: functional, organism-based; conditions: dose 3-30 mg/kg, time 21.0 day
[11] = system: Rattus norvegicus; experiment: Antioxidant activity in high fat diet/STZ induced diabetic Wistar rat model assessed as hepatocyte cytoplasm recovery at 30 mg/kg, IG pretreated with STZ for 21 days followed by compound treatment once daily for 21 days by H and E staining based microscopic analysis; format: functional, organism-based; conditions: time 21.0 day
[12] = system: Rattus norvegicus; experiment: Antioxidant activity in high fat diet/STZ induced diabetic Wistar rat model assessed as reduction in lymphocyte level in renal stroma at 3 to 30 mg/kg, IG pretreated with STZ for 21 days followed by compound treatment once daily for 21 days by H and E staining based microscopic analysis; format: functional, organism-based; conditions: dose 3-30 mg/kg, time 21.0 day
[13] = system: Rattus norvegicus; experiment: Antioxidant activity in IG dosed high fat diet/STZ induced diabetic Wistar rat model assessed as reversal of CAT reduction in kidney pretreated with STZ for 21 days followed by compound treatment once daily for 21 days by spectrophotometric analysis; format: functional, organism-based; conditions: dose 3-30 mg/kg, time 21.0 day
[14] = system: Rattus norvegicus; experiment: Antioxidant activity in high fat diet/STZ induced diabetic Wistar rat model assessed as reduction in mesangial cellularity and matrix at 10 to 30 mg/kg, IG pretreated with STZ for 21 days followed by compound treatment once daily for 21 days by H and E staining based microscopic analysis; format: functional, organism-based; conditions: dose 10-30 mg/kg, time 21.0 day
[15] = system: Rattus norvegicus; experiment: Antioxidant activity in IG dosed high fat diet/STZ induced diabetic Wistar rat model assessed as reversal of SOD reduction in liver pretreated with STZ for 21 days followed by compound treatment once daily for 21 days by spectrophotometric analysis; format: functional, organism-based; conditions: dose 3-30 mg/kg, time 21.0 day
[16] = system: Rattus norvegicus; experiment: Antioxidant activity in high fat diet/STZ induced diabetic Wistar rat model assessed as reduction in plasma cells in renal stroma at 3 to 3 to 30 mg/kg, IG pretreated with STZ for 21 days followed by compound treatment once daily for 21 days by H and E staining based microscopic analysis; format: functional, organism-based; conditions: dose 3-30 mg/kg, time 21.0 day
[17] = system: Rattus norvegicus; experiment: Antidiabetic activity in high fat diet/STZ induced diabetic Wistar rat model assessed as increase in fasting serum insulin at 3 to 30 mg/kg, IG pretreated with STZ for 21 days followed by compound treatment once daily for 21 days by chemiluminescence immunoassay; format: functional, organism-based; conditions: dose 3-30 mg/kg, time 21.0 day
[18] = Acute toxicity in rat assessed as sleep and sluggish effect at 300 to 1000 mg/kg, po measured after 6 hrs; format: organism-based; conditions: in vivo, dose 300-1000 mg/kg
[19] = Antioxidant activity assessed as DPPH scavenging activity incubated for 30 mins by absorbance based assay; format: functional; conditions: dose 25-100 µg/ml
[20] = Acute toxicity in rat assessed as change in eyes and mucous membranes at 2000 mg/kg, po measured after 30 mins to 4 hrs; format: organism-based; conditions: in vivo, time 0.5-4 hrs
[21] = Antioxidant activity assessed as H2O2 scavenging activity incubated for 10 mins by absorbance based assay; format: functional; conditions: dose 25-100 µg/ml
[22] = system: Rattus norvegicus; experiment: Antioxidant activity in IG dosed high fat diet/STZ induced diabetic Wistar rat model assessed as reversal of GPx reduction in kidney pretreated with STZ for 21 days followed by compound treatment once daily for 21 days by spectrophotometric analysis; format: functional, organism-based; conditions: dose 3-30 mg/kg, time 21.0 day
[23] = system: Rattus norvegicus; experiment: Antidiabetic activity in high fat diet/STZ induced diabetic Wistar rat model assessed as increase in HDL level at 3 to 30 mg/kg, IG pretreated with STZ for 21 days followed by compound treatment once daily for 21 days by spectrophotometric analysis; format: functional, organism-based; conditions: dose 3-30 mg/kg, time 21.0 day

Question: Which Activity [1] does the source give for `Nc1nc(NC2=NC(c3ccccc3)=CC(c3cccc([N+](=O)[O-])c3)O2)nc(N2CCOCC2)n1` (stereo not drawn) here?
Answer: Active

Question: And the Activity [2]?
Answer: Dose-Dependent Effect

Question: What about the Activity [3] of the same compound?
Answer: Active

Question: What about the Activity [4] of the same compound?
Answer: Dose-Dependent Effect

Question: And the Activity [5]?
Answer: Active

Question: And the Activity [6]?
Answer: Dose-Dependent Effect

Question: And the Activity [7]?
Answer: Dose-Dependent Effect

Question: What about the Activity [8] of the same compound?
Answer: Active

Question: And the Activity [9]?
Answer: Active

Question: And the Activity [10]?
Answer: Dose-Dependent Effect

Question: And the Activity [11]?
Answer: Active

Question: What about the Activity [12] of the same compound?
Answer: Active

Question: What about the Activity [13] of the same compound?
Answer: Dose-Dependent Effect

Question: What about the Activity [14] of the same compound?
Answer: Active

Question: What about the Activity [15] of the same compound?
Answer: Dose-Dependent Effect

Question: And the Activity [16]?
Answer: Active

Question: What about the Activity [17] of the same compound?
Answer: Active

Question: And the Activity [18]?
Answer: Non-Toxic

Question: And the Activity [19]?
Answer: Dose-Dependent Effect

Question: What about the Activity [20] of the same compound?
Answer: Non-Toxic

Question: And the Activity [21]?
Answer: Dose-Dependent Effect

Question: And the Activity [22]?
Answer: Dose-Dependent Effect

Question: And the Activity [23]?
Answer: Active
